What was measured:
[1] = Equilibrium solubility in aqueous solvents, concentration by HPLC; conditions: 25° C., mixing at least 12 hours, listed as dihydrochloric acid salt, dihydrochloride
Protocol: (§1) The sample concentration was then determined by HPLC using a single point calibration.

physchem = conditions: 25 °C, thermodynamic from solid
Protocol: as §1

[2] = 0.1 N aqueous HCl, simulated gastric fluid
[3] = pH 7.4 buffer, pH 7.4, aqueous buffer
[4] = pH 8.0 buffer, pH 8, aqueous buffer

Row | solubility in water [1] | solubility (physchem; [2]) | solubility (physchem; [3]) | solubility (physchem; [4]) | solubility (physchem; water) | Structure (SMILES)
1 | approximately 4.5 mg/mL | ~24000 µg/mL | 2 µg/mL | 2 µg/mL | ~4900 µg/mL | CNC(=O)c1ccc(-c2cnc3ncc(Cc4ccc5ncccc5c4)n3n2)cc1F.Cl.Cl [Compound 21, 2-Fluoro-N-methyl-4-(7-(quinolin-6-ylmethyl)imidazo[1,2-b][1,2,4]triazin-2-yl)benzamide dihydrochloride]
2 |  | ≥ 29000 µg/mL | 3 µg/mL | 3 µg/mL | ~3900 µg/mL | CNC(=O)c1ccc(-c2cnc3ncc(Cc4ccc5ncccc5c4)n3n2)cc1F.O=S(=O)(O)c1ccccc1.O=S(=O)(O)c1ccccc1 [dibenzenesulfonic acid salt, 2-Fluoro-N-methyl-4-[7-(quinolin-6-ylmethyl)imidazolo[1,2-b][1,2,4]triazin-2-yl]benzamide dibenzenesulfonic acid salt]
